Measurements published in ChEMBL document CHEMBL5543105, “Total synthesis and structural modification of the dibenzylbutane lignan LCA as a potent anti-inflammatory agent against LPS-induced acute lung injury” (Eur J Med Chem, 2024).
Calls of active or inactive are those of the source. The rule behind the calls is not given here.

Test system: RAW264.7
Assay: Cytotoxicity against mouse RAW264.7 cells upto 20 uM incubated for 24 hrs by CCK-8 assay
Type: toxicity, cell-based
Settings: raw264.7, 24 h

Row | SMILES | Activity
1 | COc1cc(C[C@H](C(=O)N2CCN(c3cccc(C(F)(F)F)c3)CC2)[C@@H](Cc2cc(OC)c(O)c(OC)c2)C(=O)N2CCN(c3cccc(C(F)(F)F)c3)CC2)cc(OC)c1O | Non-Toxic
2 | COc1cc(C[C@H](C(=O)N2CCN(c3ccc(F)cc3F)CC2)[C@@H](Cc2cc(OC)c(O)c(OC)c2)C(=O)N2CCN(c3ccc(F)cc3F)CC2)cc(OC)c1O | Non-Toxic
3 | COc1cc(C[C@H](C(=O)N2CCN(c3ccccc3F)CC2)[C@@H](Cc2cc(OC)c(O)c(OC)c2)C(=O)N2CCN(c3ccccc3F)CC2)cc(OC)c1O | Non-Toxic
4 | COc1cccc(N2CCN(C(=O)[C@@H](Cc3cc(OC)c(O)c(OC)c3)[C@@H](Cc3cc(OC)c(O)c(OC)c3)C(=O)N3CCN(c4cccc(OC)c4)CC3)CC2)c1 | Non-Toxic
5 | COc1cc(C[C@H](C(=O)N2CCN(c3cccc(Cl)c3Cl)CC2)[C@@H](Cc2cc(OC)c(O)c(OC)c2)C(=O)N2CCN(c3cccc(Cl)c3Cl)CC2)cc(OC)c1O | Non-Toxic
6 | COc1cc(C[C@H](C(=O)NC2CCC(OC)CC2)[C@@H](Cc2cc(OC)c(O)c(OC)c2)C(=O)NC2CCC(OC)CC2)cc(OC)c1O (stereo partly specified) | Non-Toxic
7 | COc1cc(C[C@H](C(=O)NC2CC2)[C@@H](Cc2cc(OC)c(O)c(OC)c2)C(=O)NC2CC2)cc(OC)c1O | Non-Toxic
8 | CNC(=O)[C@@H](Cc1cc(OC)c(O)c(OC)c1)[C@@H](Cc1cc(OC)c(O)c(OC)c1)C(=O)NC | Non-Toxic
9 | COc1ccccc1N1CCN(C(=O)[C@@H](Cc2cc(OC)c(O)c(OC)c2)[C@@H](Cc2cc(OC)c(O)c(OC)c2)C(=O)N2CCN(c3ccccc3OC)CC2)CC1 | Non-Toxic
10 | COc1cc(C[C@H](C(=O)NC2CCCCC2)[C@@H](Cc2cc(OC)c(O)c(OC)c2)C(=O)NC2CCCCC2)cc(OC)c1O | Non-Toxic
11 | COc1cc(C[C@H](C(=O)NC2CCC2)[C@@H](Cc2cc(OC)c(O)c(OC)c2)C(=O)NC2CCC2)cc(OC)c1O | Non-Toxic
12 | COc1cc(C[C@H](C(=O)NCC2CCC2)[C@@H](Cc2cc(OC)c(O)c(OC)c2)C(=O)NCC2CCC2)cc(OC)c1O | Non-Toxic
13 | COc1cc(C[C@H](C(=O)N2CCN(c3ccccc3C)CC2)[C@@H](Cc2cc(OC)c(O)c(OC)c2)C(=O)N2CCN(c3ccccc3C)CC2)cc(OC)c1O | Non-Toxic
14 | COc1cc(C[C@H](C(=O)N2CCN(c3ccc(Cl)cc3)CC2)[C@@H](Cc2cc(OC)c(O)c(OC)c2)C(=O)N2CCN(c3ccc(Cl)cc3)CC2)cc(OC)c1O | Non-Toxic
15 | COc1cc(C[C@H](C(=O)N2CCN(c3ccc(F)cc3)CC2)[C@@H](Cc2cc(OC)c(O)c(OC)c2)C(=O)N2CCN(c3ccc(F)cc3)CC2)cc(OC)c1O | Non-Toxic
16 | COc1cc(C[C@H](C(=O)N2CCOCC2)[C@@H](Cc2cc(OC)c(O)c(OC)c2)C(=O)N2CCOCC2)cc(OC)c1O | Non-Toxic

Row | SMILES | Activity
17 | COc1cc(C[C@H](C(=O)N2CCN(c3ccccc3)CC2)[C@@H](Cc2cc(OC)c(O)c(OC)c2)C(=O)N2CCN(c3ccccc3)CC2)cc(OC)c1O | Non-Toxic
18 | COc1cc(C[C@H](C(=O)N2CCN(c3ccccc3Cl)CC2)[C@@H](Cc2cc(OC)c(O)c(OC)c2)C(=O)N2CCN(c3ccccc3Cl)CC2)cc(OC)c1O | Non-Toxic
19 | COc1ccc(N2CCN(C(=O)[C@@H](Cc3cc(OC)c(O)c(OC)c3)[C@@H](Cc3cc(OC)c(O)c(OC)c3)C(=O)N3CCN(c4ccc(OC)cc4)CC3)CC2)cc1 | Non-Toxic
20 | COc1cc(C[C@H](C(=O)NC2CC(F)(F)C2)[C@@H](Cc2cc(OC)c(O)c(OC)c2)C(=O)NC2CC(F)(F)C2)cc(OC)c1O | Non-Toxic
21 | COc1cc(C[C@H](C(=O)N2CCN(c3cccc(F)c3)CC2)[C@@H](Cc2cc(OC)c(O)c(OC)c2)C(=O)N2CCN(c3cccc(F)c3)CC2)cc(OC)c1O | Non-Toxic
22 | COc1cc(C[C@H](C(=O)N2CCN(C)CC2)[C@@H](Cc2cc(OC)c(O)c(OC)c2)C(=O)N2CCN(C)CC2)cc(OC)c1O | Non-Toxic
23 | COc1cc(C[C@H](C(=O)NC2CC(OC)C2)[C@@H](Cc2cc(OC)c(O)c(OC)c2)C(=O)NC2CC(OC)C2)cc(OC)c1O (stereo partly specified) | Non-Toxic
24 | COc1cc(C[C@H](C(=O)N2CCN(c3ccccc3Br)CC2)[C@@H](Cc2cc(OC)c(O)c(OC)c2)C(=O)N2CCN(c3ccccc3Br)CC2)cc(OC)c1O | Non-Toxic
25 | COc1cc(C[C@H](C(=O)N2CCN(c3cccc(Cl)c3)CC2)[C@@H](Cc2cc(OC)c(O)c(OC)c2)C(=O)N2CCN(c3cccc(Cl)c3)CC2)cc(OC)c1O | Non-Toxic
26 | COc1cc(C[C@H](C(=O)N2CCN(c3ccc(C)cc3)CC2)[C@@H](Cc2cc(OC)c(O)c(OC)c2)C(=O)N2CCN(c3ccc(C)cc3)CC2)cc(OC)c1O | Non-Toxic
27 | COc1cc(C[C@H](C(=O)N2CCN(c3ccc(C(F)(F)F)cc3)CC2)[C@@H](Cc2cc(OC)c(O)c(OC)c2)C(=O)N2CCN(c3ccc(C(F)(F)F)cc3)CC2)cc(OC)c1O | Non-Toxic
28 | COc1cc(C[C@H](C(=O)N2CCN(c3cccc(C)c3)CC2)[C@@H](Cc2cc(OC)c(O)c(OC)c2)C(=O)N2CCN(c3cccc(C)c3)CC2)cc(OC)c1O | Non-Toxic
29 | COc1cc(C[C@H](C(=O)NCC2CCCCC2)[C@@H](Cc2cc(OC)c(O)c(OC)c2)C(=O)NCC2CCCCC2)cc(OC)c1O | Non-Toxic
30 | COc1cc(C[C@H](C(=O)N2CCN(c3ccccc3C(F)(F)F)CC2)[C@@H](Cc2cc(OC)c(O)c(OC)c2)C(=O)N2CCN(c3ccccc3C(F)(F)F)CC2)cc(OC)c1O | Non-Toxic
31 | COc1cc(C[C@H](C(=O)N2CCCCC2)[C@@H](Cc2cc(OC)c(O)c(OC)c2)C(=O)N2CCCCC2)cc(OC)c1O | Non-Toxic
32 | CCCCCCNC(=O)[C@@H](Cc1cc(OC)c(O)c(OC)c1)[C@@H](Cc1cc(OC)c(O)c(OC)c1)C(=O)NCCCCCC | Non-Toxic

Test system: RAW264.7
Assay: Anti-inflammatory activity against mouse RAW264.7 cells assessed as inhibition of LPS-induced NO production at 20 uM incubated for 24 hrs
Type: functional, cell-based
Settings: not given

Row | SMILES | Activity
33 | COc1cc(C[C@H](C(=O)N2CCN(c3cccc(C(F)(F)F)c3)CC2)[C@@H](Cc2cc(OC)c(O)c(OC)c2)C(=O)N2CCN(c3cccc(C(F)(F)F)c3)CC2)cc(OC)c1O | Active
34 | COc1cc(C[C@H](C(=O)N2CCN(c3ccc(F)cc3F)CC2)[C@@H](Cc2cc(OC)c(O)c(OC)c2)C(=O)N2CCN(c3ccc(F)cc3F)CC2)cc(OC)c1O | Active
35 | COc1cc(C[C@H](C(=O)N2CCN(c3ccccc3C)CC2)[C@@H](Cc2cc(OC)c(O)c(OC)c2)C(=O)N2CCN(c3ccccc3C)CC2)cc(OC)c1O | Active
36 | COc1cc(C[C@H](C(=O)N2CCN(c3ccc(Cl)cc3)CC2)[C@@H](Cc2cc(OC)c(O)c(OC)c2)C(=O)N2CCN(c3ccc(Cl)cc3)CC2)cc(OC)c1O | Active
37 | COc1cc(C[C@H](C(=O)N2CCOCC2)[C@@H](Cc2cc(OC)c(O)c(OC)c2)C(=O)N2CCOCC2)cc(OC)c1O | Active
38 | COc1cc(C[C@H](C(=O)N2CCN(c3ccccc3Cl)CC2)[C@@H](Cc2cc(OC)c(O)c(OC)c2)C(=O)N2CCN(c3ccccc3Cl)CC2)cc(OC)c1O | Active
39 | COc1cc(C[C@H](C(=O)N2CCN(C)CC2)[C@@H](Cc2cc(OC)c(O)c(OC)c2)C(=O)N2CCN(C)CC2)cc(OC)c1O | Active
40 | COc1cc(C[C@H](C(=O)N2CCN(c3cccc(Cl)c3)CC2)[C@@H](Cc2cc(OC)c(O)c(OC)c2)C(=O)N2CCN(c3cccc(Cl)c3)CC2)cc(OC)c1O | Active
41 | COc1cc(C[C@H](C(=O)N2CCN(c3ccccc3C(F)(F)F)CC2)[C@@H](Cc2cc(OC)c(O)c(OC)c2)C(=O)N2CCN(c3ccccc3C(F)(F)F)CC2)cc(OC)c1O | Active
